According to patent publication US20150197492A1, “NOVEL INDENO[1,2-c]QUINOLIN-11-ONE DERIVATIVES, PREPARATION METHOD AND APPLICATION THEREOF” (National Defense Medical Center, priority 2014, published 2015):
pIC50: −log10 of the molar value.

Tests used:
Format in all cases: cell-based
human PC-3 cells = assay: Sulforhodamine B (SRB) assay, cytotoxicity against PC-3 cells; details: Homo sapiens; SRB assay, PC-3 cells, 48 hours; read-out: IC50
How it was run: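 PC-3 cells in 5% FBS were fixed with 10% TCA after 24 h as T0, then treated with compound for 48 h, fixed, stained with 0.4% SRB in 1% acetic acid and solubilized in 10 mmol/L Trizma base. Absorbance was read at 515 nm. GI% = 100−[(Tx−T0)/(C−T0)]×100, and IC50 is the concentration halving total protein.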

[1] = system: 55 to 60 cancer cell lines; details: 10 μM, 48 hours, all tested cell lines
CCRF-CEM = assay: cells; details: CCRF-CEM (Leukemia), 10 μM, 48 hours
HL-60 (TB) = assay: cells; details: HL-60 (TB) (Leukemia), 10 μM, 48 hours
SR = assay: cells; details: SR (Leukemia), 10 μM, 48 hours
A549/ATCC = assay: cells; details: A549/ATCC (Non-Small Cell Lung Cancer), 10 μM, 48 hours
HOP-62 = assay: cells; details: HOP-62 (Non-Small Cell Lung Cancer), 10 μM, 48 hours
NCI-H23 = assay: cells; details: NCI-H23 (Non-Small Cell Lung Cancer), 10 μM, 48 hours
NCI-H460 = assay: cells; details: NCI-H460 (Non-Small Cell Lung Cancer), 10 μM, 48 hours
NCI-H522 = assay: cells; details: NCI-H522 (Non-Small Cell Lung Cancer), 10 μM, 48 hours
SW-620 = assay: cells; details: SW-620 (Colon Cancer), 10 μM, 48 hours
SF-295 = assay: cells; details: SF-295 (CNS Cancer), 10 μM, 48 hours
SNB-19 = assay: cells; details: SNB-19 (CNS Cancer), 10 μM, 48 hours
U251 = assay: cells; details: U251 (CNS Cancer), 10 μM, 48 hours
MDA-MB-435 = assay: cells; details: MDA-MB-435 (Melanoma), 10 μM, 48 hours
SK-MEL-28 = assay: cells; details: SK-MEL-28 (Melanoma), 10 μM, 48 hours
SK-MEL-5 = assay: cells; details: SK-MEL-5 (Melanoma), 10 μM, 48 hours
UACC-257 = assay: cells; details: UACC-257 (Melanoma), 10 μM, 48 hours
IGROV1 = assay: cells; details: IGROV1 (Ovarian Cancer), 10 μM, 48 hours
OVCAR-4 = assay: cells; details: OVCAR-4 (Ovarian Cancer), 10 μM, 48 hours
SK-OV-3 = assay: cells; details: SK-OV-3 (Ovarian Cancer), 10 μM, 48 hours
786-0 = assay: cells; details: 786-0 (Renal Cancer), 10 μM, 48 hours
ACHN = assay: cells; details: ACHN (Renal Cancer), 10 μM, 48 hours
CAKI-1 = assay: cells; details: CAKI-1 (Renal Cancer), 10 μM, 48 hours
TK-10 = assay: cells; details: TK-10 (Renal Cancer), 10 μM, 48 hours
DU-145 = assay: cells; details: DU-145 (Prostate Cancer), 10 μM, 48 hours
MCF7 = assay: cells; details: MCF7 (Breast Cancer), 10 μM, 48 hours
MDA-MB-231/ATCC = assay: cells; details: MDA-MB-231/ATCC (Breast Cancer), 10 μM, 48 hours
BT-549 = assay: cells; details: BT-549 (Breast Cancer), 10 μM, 48 hours

Question: How did the pIC50 (human PC-3 cells) turn out when `O=C1c2cc(Cl)ccc2-c2c(N3CCOCC3)nc3ccccc3c21` [SJ-8, 9-Chloro-6-morpholino-11H-indeno[1,2-c]quinolin-11-one] was run?
Answer: Its pIC50 is under 5.00.

Question: And the “Mean (mean growth percentage of the tested cancer cell lines)” value [1]?
Answer: The value was 93.66%.

Question: What about the growth percentage (CCRF-CEM) of the same molecule?
Answer: The growth percentage was 88.85%.

Question: And the growth percentage (HL-60 (TB))?
Answer: Its growth percentage is 97.09%.

Question: What about the growth percentage (SR) of the same molecule?
Answer: The growth percentage was 85.94%.

Question: And the growth percentage (A549/ATCC)?
Answer: The growth percentage was 101.47%.

Question: And the growth percentage (HOP-62)?
Answer: Its growth percentage is 78.71%.

Question: What about the growth percentage (NCI-H23) of the same molecule?
Answer: Its growth percentage is 90.40%.

Question: And the growth percentage (NCI-H460)?
Answer: Its growth percentage is 102.14%.

Question: And the growth percentage (NCI-H522)?
Answer: Its growth percentage is 91.11%.

Question: And the growth percentage (SW-620)?
Answer: The growth percentage was 103.71%.

Question: What about the growth percentage (SF-295) of the same molecule?
Answer: Its growth percentage is 102.43%.

Question: And the growth percentage (SNB-19)?
Answer: Its growth percentage is 100.01%.

Question: What about the growth percentage (U251) of the same molecule?
Answer: The growth percentage was 95.72%.

Question: What about the growth percentage (MDA-MB-435) of the same molecule?
Answer: The growth percentage was 106.62%.

Question: And the growth percentage (SK-MEL-28)?
Answer: Its growth percentage is 113.81%.

Question: What about the growth percentage (SK-MEL-5) of the same molecule?
Answer: The growth percentage was 99.19%.

Question: And the growth percentage (UACC-257)?
Answer: Its growth percentage is 103.31%.

Question: And the growth percentage (IGROV1)?
Answer: The growth percentage was 86.47%.

Question: What about the growth percentage (OVCAR-4) of the same molecule?
Answer: Its growth percentage is 96.67%.

Question: And the growth percentage (SK-OV-3)?
Answer: The growth percentage was 107.26%.

Question: And the growth percentage (786-0)?
Answer: The growth percentage was 103.71%.

Question: And the growth percentage (ACHN)?
Answer: Its growth percentage is 81.66%.

Question: And the growth percentage (CAKI-1)?
Answer: The growth percentage was 94.99%.

Question: And the growth percentage (TK-10)?
Answer: Its growth percentage is 101.98%.

Question: What about the growth percentage (DU-145) of the same molecule?
Answer: Its growth percentage is 119.02%.

Question: And the growth percentage (MCF7)?
Answer: Its growth percentage is 52.31%.

Question: What about the growth percentage (MDA-MB-231/ATCC) of the same molecule?
Answer: The growth percentage was 79.28%.

Question: What about the growth percentage (BT-549) of the same molecule?
Answer: The growth percentage was 93.95%.
